Columns and labels:
Type in all cases: cell-based
[1] = test system: Salmonella choleraesuis; experiment: Photocatalytic food dyes Log10 counts (Example 2); details: S. choleraesuis, Control 7.28
Description: (§1) Test microorganisms included Salmonella choleraesuis, Staphylococcus aureus, foodborne pathogens of humans. Test Compounds included Methylene blue, Hemoglobin (blood product), Hemin (blood product), Protoporphyrin (blood product), Annatto Extract (15% Norbixin), beet juice, Canthaxanthin (10%), Beta-carotene (1%), Purple carmine 50%, Carmine lake 60%, Black Carrot extract, Tomato lycopene (5%), sodium copper chlorophyllin, grape skin extract, paprika oleoresin, riboflavin, saffron, titanium dioxide, FD&C blue No1., turmeric oleoresin, FD&C blue No. 2, FD&C Green No. 3, FD&C Red No. 2 (Amaranth), FD&C Red No. 40, FD&C Yellow No. 5, and FD&C Yellow No. 6. Compounds were prepared as 1%, 0.1%, 0.01%, by weight, dissolved in water.
(§2) The light source was a full spectrum fluorescent light or LED light and the contact time was 1 and 16 hours. The study temperature was 37° C.
(§3) Approximately 10^6 organisms in 150 uL Cation Adjusted Mueller Hinton Broth (CAMHB) were placed in each of the wells of a 96 peg MBEC device. The lid of the 96 peg MBEC device was placed on the bottom plate containing organism. The device was placed on a shaker, set to 110 rpm, and incubated at 37° C. for 24 hours to produce biofilms.
(§4) The challenge plates were set up using a sterile 96-well microtitre plate using aseptic techniques in the following manner (one organism per plate, per light exposure time, per light source). Test solutions (200 uL) were placed into each well. The lid was transferred to the challenge plate and exposed to the various light sources for the prescribed exposure times (16 hours). Following the treatment, the pegs were transferred to the recovery media (“recovery plate”) then wrapped in tin foil and incubated at 37° C. for 18 to 24 hours. The recovery plate(s) was wrapped in tin foil, incubated at 37° C. for 24 hours and read visually and by a plate reader, set to an optical density measurement of 630 nm, to determine Minimum Biofilm Eradication Concentration (MBEC) by looking at growth or no growth.
(§5) The test was conducted as shown in Example 1, but using Hemin (blood product), Protoporphyrin (blood product), Annatto Extract, and Turmeric. The group of tests organism also included E. Coli 0157H7.

[2] = test system: E. coli 0157H7; experiment: Photocatalytic food dyes Log10 counts (Example 2)
Description: as §1, §2, §3, §4, §5

[3] = test system: Staphylococcus aureus; experiment: Photocatalytic food dyes Log10 counts (Example 2); details: Staph. aureus
Description: as §1, §2, §3, §4, §5

[4] = test system: Salmonella choleraesuis; experiment: MBEC device biofilm photodynamic killing (Example 1); set-up: key to Killing of Salmonella cholerasuis biofilm (eradication or growth): “−” = biofilm eradication at the mentioned conditions (concentration, exposure time and Light source); “+” = biofilm growth; details: for Killing of Salmonella cholerasuis biofilm (eradication or growth): 16 Hours exposure
Description: as §1, §2, §3, §4

[5] = test system: Staphylococcus aureus; experiment: as above; set-up: key to Killing of Staph aureus biofilm (eradication or growth): “−” = biofilm eradication at the mentioned conditions (concentration, exposure time and Light source); “+” = biofilm growth; details: for Killing of Staph aureus biofilm (eradication or growth): 16 Hours exposure
Description: as §1, §2, §3, §4

## Protoporphyrin
[1]; Fluorescent Light 16 hours, 0.01%
  Average Log10 counts: 2.10 Log10
[1]; Fluorescent Light 16 hours, 0.1%
  Average Log10 counts: 2.33 Log10
[1]; Fluorescent Light 16 hours, 1%
  Average Log10 counts: 3.32 Log10
[1]; LED Light 16 hours, 0.01%
  Average Log10 counts: 3.40 Log10
[1]; LED Light 16 hours, 0.1%
  Average Log10 counts: 3.67 Log10
[1]; LED Light 16 hours, 1%
  Average Log10 counts: 2.92 Log10
[2]; Fluorescent Light 16 hours, 0.01%, Control 6.51
  Average Log10 counts: 0.44 Log10
[2]; Fluorescent Light 16 hours, 0.1%, Control 6.51
  Average Log10 counts: 0.57 Log10
[2]; Fluorescent Light 16 hours, 1%, Control 6.51
  Average Log10 counts: 0.00 Log10
[2]; LED Light 16 hours, 0.01%, Control 6.36
  Average Log10 counts: 4.04 Log10
[2]; LED Light 16 hours, 0.1%, Control 6.36
  Average Log10 counts: 3.48 Log10
[2]; LED Light 16 hours, 1%, Control 6.36
  Average Log10 counts: 3.60 Log10
[3]; Fluorescent Light 16 hours, 0.01%, Control 6.48
  Average Log10 counts: 0.00 Log10
[3]; Fluorescent Light 16 hours, 0.1%, Control 6.48
  Average Log10 counts: 0.00 Log10
[3]; Fluorescent Light 16 hours, 1%, Control 6.48
  Average Log10 counts: 0.00 Log10
[3]; LED Light 16 hours, 0.01%, Control 6.95
  Average Log10 counts: 1.29 Log10
[3]; LED Light 16 hours, 0.1%, Control 6.95
  Average Log10 counts: 0.50 Log10
[3]; LED Light 16 hours, 1%, Control 6.95
  Average Log10 counts: 3.10 Log10
[4]; Fluorescent Light, 0.01%
  Killing of Salmonella cholerasuis biofilm (eradication or growth): −
[4]; Fluorescent Light, 0.1%
  Killing of Salmonella cholerasuis biofilm (eradication or growth): −
[4]; Fluorescent Light, 1%
  Killing of Salmonella cholerasuis biofilm (eradication or growth): −
[4]; LED Light, 0.01%
  Killing of Salmonella cholerasuis biofilm (eradication or growth): +
[4]; LED Light, 0.1%
  Killing of Salmonella cholerasuis biofilm (eradication or growth): +
[4]; LED Light, 1%
  Killing of Salmonella cholerasuis biofilm (eradication or growth): −
[4]; LED light
  concentration at which useful against Salmonella: greater than 1%
[4]; Salmonella choleraesuis and Staphylococcus aureus biofilm, summary of Table 1
  effective as photodynamic agent in killing biofilm organisms: Effective
[4]; fluorescent light
  concentration at which useful against Salmonella: greater than 0.01%
[5]; Fluorescent Light, 0.01%
  Killing of Staph aureus biofilm (eradication or growth): +
[5]; Fluorescent Light, 0.1%
  Killing of Staph aureus biofilm (eradication or growth): +
[5]; Fluorescent Light, 1%
  Killing of Staph aureus biofilm (eradication or growth): +
[5]; LED Light, 0.01%
  Killing of Staph aureus biofilm (eradication or growth): +
[5]; LED Light, 0.1%
  Killing of Staph aureus biofilm (eradication or growth): +
[5]; LED Light, 1%
  Killing of Staph aureus biofilm (eradication or growth): +
[5]; fluorescent light
  concentration at which useful against Staph A: greater than 0.1%

## CC1=C(/C=C/C(C)=C/C=C/C(C)=C/C=C/C=C(C)/C=C/C=C(C)/C=C/C2=C(C)CCCC2(C)C)C(C)(C)CCC1 [β-Carotene, Beta-carotene]
[4]; Fluorescent Light, 0.01%
  Killing of Salmonella cholerasuis biofilm (eradication or growth): +
[4]; Fluorescent Light, 0.1%
  Killing of Salmonella cholerasuis biofilm (eradication or growth): +
[4]; Fluorescent Light, 1%
  Killing of Salmonella cholerasuis biofilm (eradication or growth): +
[4]; LED Light, 0.01%
  Killing of Salmonella cholerasuis biofilm (eradication or growth): +
[4]; LED Light, 0.1%
  Killing of Salmonella cholerasuis biofilm (eradication or growth): +
[4]; LED Light, 1%
  Killing of Salmonella cholerasuis biofilm (eradication or growth): +
[5]; Fluorescent Light, 0.01%
  Killing of Staph aureus biofilm (eradication or growth): +
[5]; Fluorescent Light, 0.1%
  Killing of Staph aureus biofilm (eradication or growth): +
[5]; Fluorescent Light, 1%
  Killing of Staph aureus biofilm (eradication or growth): +
[5]; LED Light, 0.01%
  Killing of Staph aureus biofilm (eradication or growth): +
[5]; LED Light, 0.1%
  Killing of Staph aureus biofilm (eradication or growth): +
[5]; LED Light, 1%
  Killing of Staph aureus biofilm (eradication or growth): +

## COc1cc(S(=O)(=O)[O-])c(C)cc1N=Nc1c(O)ccc2cc(S(=O)(=O)[O-])ccc12.[Na+].[Na+] [Red No. 40, FD&C Red No. 40]
[4]; Fluorescent Light, 0.01%
  Killing of Salmonella cholerasuis biofilm (eradication or growth): +
[4]; Fluorescent Light, 0.1%
  Killing of Salmonella cholerasuis biofilm (eradication or growth): +
[4]; Fluorescent Light, 1%
  Killing of Salmonella cholerasuis biofilm (eradication or growth): +
[4]; LED Light, 0.01%
  Killing of Salmonella cholerasuis biofilm (eradication or growth): +
[4]; LED Light, 0.1%
  Killing of Salmonella cholerasuis biofilm (eradication or growth): +
[4]; LED Light, 1%
  Killing of Salmonella cholerasuis biofilm (eradication or growth): +
[5]; Fluorescent Light, 0.01%
  Killing of Staph aureus biofilm (eradication or growth): +
[5]; Fluorescent Light, 0.1%
  Killing of Staph aureus biofilm (eradication or growth): +
[5]; Fluorescent Light, 1%
  Killing of Staph aureus biofilm (eradication or growth): +
[5]; LED Light, 0.01%
  Killing of Staph aureus biofilm (eradication or growth): +
[5]; LED Light, 0.1%
  Killing of Staph aureus biofilm (eradication or growth): +
[5]; LED Light, 1%
  Killing of Staph aureus biofilm (eradication or growth): +

## Cc1cc2nc3c(=O)[nH]c(=O)nc-3n(C[C@H](O)[C@H](O)[C@H](O)CO)c2cc1C [Riboflavin, riboflavin]
[4]; Fluorescent Light, 0.01%
  Killing of Salmonella cholerasuis biofilm (eradication or growth): +
[4]; Fluorescent Light, 0.1%
  Killing of Salmonella cholerasuis biofilm (eradication or growth): +
[4]; Fluorescent Light, 1%
  Killing of Salmonella cholerasuis biofilm (eradication or growth): +
[4]; LED Light, 0.01%
  Killing of Salmonella cholerasuis biofilm (eradication or growth): +
[4]; LED Light, 0.1%
  Killing of Salmonella cholerasuis biofilm (eradication or growth): +
[4]; LED Light, 1%
  Killing of Salmonella cholerasuis biofilm (eradication or growth): +
[5]; Fluorescent Light, 0.01%
  Killing of Staph aureus biofilm (eradication or growth): +
[5]; Fluorescent Light, 0.1%
  Killing of Staph aureus biofilm (eradication or growth): +
[5]; Fluorescent Light, 1%
  Killing of Staph aureus biofilm (eradication or growth): +
[5]; LED Light, 0.01%
  Killing of Staph aureus biofilm (eradication or growth): +
[5]; LED Light, 0.1%
  Killing of Staph aureus biofilm (eradication or growth): +
[5]; LED Light, 1%
  Killing of Staph aureus biofilm (eradication or growth): +
